{"source": "patent US9644037B2", "about": "“Antibodies that specifically bind ataxia telangiectasia-mutated and RAD3-related kinase phosphorylated at position 1989 and their use” (THE UNITED STATES OF AMERICA, AS REPRESENTED BY THE …, priority 2013, dated 2017)", "key": {"phospho-ATR (pT1989)": {"tested_on": "phospho-ATR (pT1989)", "assay": "Western blot of phospho-ATR (pT1989) in drug-treated cells", "type": "cell-based, human", "description": "Cell growth was monitored 2-3 weeks after fusion. Hybridoma supernatants were screened by standard colorimetric ELISA against BSA-conjugated peptides as described in section C. The screening process consisted of a Primary screen on 40 plates (using bleed 2 of E5571 at 1:100 dilution as a Positive control) clones (44) with O.D. greater than 0.5 were considered putatively positive and were further expanded to 24-well plate. Confirmatory screen was performed and 6 clones were confirmed positive against phospho-specific peptides (Table 4). Additional screening was performed by ELISA using the same assay as for bleed screening (FIG. 5). Western blotting was done on selected clones #7, 27 and 35 for subcloning (FIG. 6). DLD-1 cells and DLD-1 Seckel cells with and without gemcitabine treatment (100 nM for 4 h) were lysed with cell extraction buffer (Invitrogen, catalog # FNN0011). Lysates were run on NUPAGE® NOVEX® 3-8% gels (Invitrogen, catalog # EA0378BOX) and transferred to nitrocellulose membranes (Invitrogen catalog # IB3010-01) using the IBLOT® apparatus from Invitrogen. Blots were blocked with Licor ODYSSEY® blocking buffer (LiCor, catalog #927-40010) and incubated overnight with hybridoma supernatants (1:30). Blots were then washed with PBS-T (0.05% TWEEN®) and incubated with Licor goat anti-rabbit IR-680 antibody for 1 h at room temperature. Blots were then washed with phosphate-buffered saline with 0.05% TWEEN®-20 (PBS-T) and scanned at 700 nm on Licor ODYSSEY® scanner.\nDetails for lysate preparation and Western blotting are given in Example I, section E. The antibody detected a single band at about 250 kDa consistent with the predicted molecular weight (MW) for ATR. The antibody also detected an increase in phospho-ATR (pT1989) upon gemcitabine (SIGMA) treatment which is known to increase ATR activity (Mol. Pharmacol. (2005), 68, 1636-1644). Finally, an isogenic pair of DLD-1 cells was used.\nCells were treated for 4 hours with either vehicle (DMSO, 0.01%), 150 nM Gemcitabine (Sigma), 1 uM ATR inhibitor VE-821 or combination of drugs. The antibody detected a single band at about 250 kDa consistent with the predicted MW for ATR. The antibody also detected an increase in phospho-ATR (pT1989) upon Gemcitabine treatment, which is known to increase ATR activity (Molecular Pharmacology (2005) 68, 1636-1644). […] Lysates were prepared in buffer as follows: 0.94 ml RIPA buffer, 40 μl Protease Inhibitor Cocktail (25× stock, Roche Cat#11697498001), 10 μl Phosphatase Inhibitor (Roche Cat#04906845001) and 10 μl PMSF (Sigma cat#93482). Lysates were sonicated prior to use. Lysates were run on 3-8% Tris-Acetate gels from NOVEX® (Invitrogen, Cat# EA0378BOX) and transferred to nitrocellulose membranes using the IBLOT® transfer apparatus, program setting P3, 20V, 13 min. Blots were blocked with Licor ODYSSEY® blocking buffer and incubated overnight with Clone 7 hybridoma supernatant (1:30). B lots were then washed with PBS-T (0.05% Tween) and incubated with Licor goat anti-rabbit IR-680 antibody for 1 h at room temperature. […]\nFor these studies, DLD-1 parental and DLD-1 Seckel (Horizon) cells were treated with gemcitabine for 4 hours. Clone 7A7 detected ATR in the parental DLD-1 cell lysate by Western blotting and detects an increase in pT1989-ATR with gemcitabine treatment as expected. In contrast, the level of pT-1989 detected by clone 7A7 was much lower in the DLD-1 Seckel cells which have suppressed ATR expression."}, "[1]": {"tested_on": "ATR phosphorylation at pT1989", "assay": "ATR-pT1989 IFA on FFPE pellets of drug-treated cells", "type": "cell-based, human", "description": "Formalin fixed paraffin embedded (FFPE) pellets were generated using cells expressing WT ATR (HT29, DLD-1 Parental) or mutated ATR (DLD-1 Seckel (Horizon)), with and without gemcitabine (SIGMA) treatment to induce ATR phosphorylation at pT1989 (Mol. Pharmacol. 2005, 68, 1636-1644). Cells were harvested by trypsinization, transferred into a sterile 50 ml conical centrifuge tubes with media containing 10% serum and pelleted at 1000×g for 5 minutes. Medium was replaced with fresh serum containing medium and centrifuged again at 1000×g, 5 minutes. All but 1 ml (approximately) of medium was removed and the pellet was re-suspended by flicking the tube. Suspended cells were transferred using a 2 ml pipette into a clean 1.5 ml conical Eppendorf tube. Cells were pelleted for 30 seconds at 8,000 rpm in an Eppendorf micro centrifuge. The supernatant was discarded leaving approximately 100-200 ul behind. The cell pellet was loosened by gently flicking the tube and Thrombin stock (8 ul of 1 unit/ul water, Sigma #T-7009) was added. The cells were mixed briefly by gently flicking the tube then held on ice for 2-5 minutes. Fibrinogen stock (5 ul of at 10 mg/ml water, Sigma #F-3879) was added, and the tube was incubated for 2-5 minutes at room temperature. Clotted cells were pelleted by a brief centrifuge for 20 seconds at 10K. […]"}, "pT1989-ATR": {"tested_on": "pT1989-ATR", "assay": "Immunoblot of ATR-Chk1 response to Top1 inhibitors with or without VE-821: ATR", "type": "cell-based", "conditions": "for phosphorylation of ATR (threonine 1989): Top1 inhibitor treatment, 0, 4, 8, 18 h after removal", "description": "(§1) For these studies, auto-phosphorylation of ATR on threonine 1989, a DNA damage activation site (Nam et al., J Biol Chem 2011; 286(33):28707-14; Liu et al., Molecular cell 2011; 43(2):192-202), was determined, as well as Chk1 phosphorylation on serine 345, which is mediated by ATR. Histone H2AX phosphorylation was also determined on serine 139 (γH2AX), a validated pharmacodynamic biomarker for DNA damage and apoptosis (Bonner et al., Nat Rev Cancer 2008; 8(12):957-67; Kinders et al., Clin Cancer Res 2010; 16(22):5447-57; Solier et al., Mol Cell Biol 2009; 29(1):68-82).\n(§2) Briefly, cell lysates were electrophoresed on 4-20% Tris-glycine or 3-8% Tris-acetate polyacrylamide gels, and transferred onto nitrocellulose membranes. Antibodies against GAPDH, ATR and pS345-Chk1 were obtained from Cell Signaling Technologies, γH2AX and pT68-Chk2 from Abcam and Top1 from BD Biosciences. The antibody against pT1989-ATR is disclosed above. After incubation with secondary antibody, signals were detected by enhanced chemiluminescence (Pierce)."}, "pS345-Chk1": {"tested_on": "pS345-Chk1", "assay": "Immunoblot of ATR-Chk1 response to Top1 inhibitors with or without VE-821: Chk1", "type": "cell-based", "conditions": "for phosphorylation of Chk1 (serine 345): Top1 inhibitor treatment", "description": "as §1, §2"}, "pT68-Chk2": {"tested_on": "pT68-Chk2", "assay": "Immunoblot of ATR-Chk1 response to Top1 inhibitors with or without VE-821: Chk2", "type": "cell-based", "conditions": "for phosphorylation of Chk2 (threonine 68): Top1 inhibitor treatment", "description": "as §2, with “[…]-Chk1” for “pS345-Chk1”, “[…]-Chk2” for “pT68-Chk2”, “[…]-ATR” for “pT1989-ATR”"}, "γH2AX": {"tested_on": "γH2AX", "assay": "Immunoblot of ATR-Chk1 response to Top1 inhibitors with or without VE-821: γH2AX", "type": "cell-based", "conditions": "for phosphorylation of H2AX (γH2AX): Top1 inhibitor treatment", "description": "as §1, §2"}, "[2]": {"tested_on": "ATR-pT1989 foci in A2780 xenografts", "assay": "pATR T1989 immunofluorescence assay in A2780 xenografts", "type": "in vivo, mice", "conditions": "1.2 or 6.0 mg/kg intraperitoneally; 4, 7 and 24 hours; dose and time dependent", "description": "In vivo studies were performed. A2780 xenografts were evaluated in mice treated with 1.2 mg/kg cisplatin or 6.0 mg/kg cisplatin for 4, 7 and 24 hours. […] The following methods were used in these studies:\nXenograft Samples and In Vivo Quantitation: Athymic nu/nu mice were implanted with A2780 cells as previously described (Kinders et al., Clin Cancer Res 2010:16(22):5447-57). Xenograft quadrants were collected and flash frozen from mice following exposure to vehicle (0.9% saline) or various doses (1.2, 6.0 mg/kg) of cisplatin administered intraperitoneally. The samples were fixed in neutral-buffered formalin and paraffin-embedded as previously described (Kinders et al., Clin Cancer Res 2010; 16(22):5447-57). Animal care was provided in accordance with the procedures outlined in the “Guide for Care and Use of Laboratory Animals” (National Research Council; 1996; National Academy Press; Washington, D.C.), and all studies were conducted under an approved Animal Care and Use Committee protocol. […]\nQuantitative Marker Analysis: The DEFINIENS TISSUE STUDIO® (Version 2.0.3; Build 2057) software program was used for analysis of foci count/nucleus. For the analysis, fields were scored first for the number of nuclei and then individual counts of the number of foci count/per nucleus were performed. […]"}, "[3]": {"conditions": "VE-821 with Top1 inhibitor (CPT or LMP-400)"}}}
{"smiles": "Nc1ccn([C@@H]2O[C@H](CO)[C@@H](O)C2(F)F)c(=O)n1", "note": "[gemcitabine]", "values": [{"measurement": "phospho-ATR (pT1989) level by Western blot", "setting": "phospho-ATR (pT1989); 150 nM, 4 hours, HT-29 and LoVo", "value": "increase"}, {"measurement": "pT1989-ATR level by Western blot", "setting": "phospho-ATR (pT1989); 4 hours, parental DLD-1 cells", "value": "increase"}, {"measurement": "phospho-ATR (pT1989) level by Western blot", "setting": "phospho-ATR (pT1989); gemcitabine treatment, HT-29, LoVo and DLD-1 lysates", "value": "increase"}, {"measurement": "signal intensity for pT1989 staining compared to untreated cells", "setting": "[1]; FFPE HT29, DLD-1 cells", "value": "higher signal intensity"}, {"measurement": "signal intensity for pT1989 staining compared to untreated cells", "setting": "[1]; HT29 cells, 150 nM, 4 hrs or 24 hrs", "value": "higher signal intensity"}]}
{"smiles": "CS(=O)(=O)c1ccc(-c2cnc(N)c(C(=O)Nc3ccccc3)n2)cc1", "note": "[VE-821]", "values": [{"measurement": "phospho-ATR (pT1989) level by Western blot compared to gemcitabine alone", "setting": "phospho-ATR (pT1989); 1 uM VE-821 combined with 150 nM gemcitabine, 4 hours, HT-29 and LoVo", "value": "reduced"}, {"measurement": "phospho-ATR (pT1989) level by Western blot compared to vehicle", "setting": "phospho-ATR (pT1989); 1 uM alone, 4 hours, HT-29 and LoVo", "value": "did not affect"}, {"measurement": "phosphorylation of ATR", "setting": "pT1989-ATR; [3]", "value": "inhibited the phosphorylation"}, {"measurement": "phosphorylation of Chk1", "setting": "pS345-Chk1; [3]", "value": "inhibited the phosphorylation"}, {"measurement": "Chk2 phosphorylation", "setting": "pT68-Chk2; [3]", "value": "without reducing Chk2 phosphorylation"}, {"measurement": "γH2AX induction over time", "setting": "γH2AX; [3]", "value": "strongly induced"}]}
{"smiles": "CC[C@@]1(O)C(=O)OCc2c1cc1n(c2=O)Cc2cc3ccccc3nc2-1", "note": "[CPT]", "values": [{"measurement": "phosphorylation of ATR (threonine 1989)", "setting": "pT1989-ATR", "value": "delayed and best detectable after drug removal"}, {"measurement": "phosphorylation of Chk1 (serine 345)", "setting": "pS345-Chk1", "value": "quickly induced the rapid phosphorylation"}, {"measurement": "phosphorylation of Chk2 (threonine 68)", "setting": "pT68-Chk2", "value": "quickly induced the rapid phosphorylation"}, {"measurement": "phosphorylation of H2AX (γH2AX)", "setting": "γH2AX", "value": "quickly induced the rapid phosphorylation"}]}
{"smiles": "COc1cc2c3c(n(CCCN4CCOCC4)c(=O)c2cc1OC)-c1cc2c(cc1C3=O)OCO2", "note": "[LMP-400]", "values": [{"measurement": "effects on checkpoint phosphorylation relative to CPT", "setting": "pT1989-ATR", "value": "more pronounced effects than CPT"}, {"measurement": "phosphorylation of ATR (threonine 1989)", "setting": "pT1989-ATR", "value": "delayed and best detectable after drug removal"}, {"measurement": "phosphorylation of Chk1 (serine 345)", "setting": "pS345-Chk1", "value": "quickly induced the rapid phosphorylation"}, {"measurement": "phosphorylation of Chk2 (threonine 68)", "setting": "pT68-Chk2", "value": "quickly induced the rapid phosphorylation"}, {"measurement": "phosphorylation of H2AX (γH2AX)", "setting": "γH2AX", "value": "quickly induced the rapid phosphorylation"}]}
{"smiles": "N.N.[Cl][Pt][Cl]", "note": "[cisplatin]", "values": [{"measurement": "ATR foci in treated samples compared to vehicle", "setting": "[2]", "value": "increase in ATR foci"}]}
